In the NIST ThermoML archive (doi:10.1016/j.fluid.2010.04.008):

Details: Liquid, Ebulliometric method (Recirculating still)

C1COCCN1 [tetrahydro-1,4-oxazine]
Details	vapor or sublimation pressure [kPa]
356.46 K	22.57
359.12 K	24.96
361.7 K	27.47
364.05 K	30.02
366.23 K	32.49
368.27 K	34.95
370.28 K	37.52
372.11 K	40.01
373.84 K	42.47
375.53 K	45.01
377.1 K	47.47
378.63 K	49.95
380.12 K	52.51
381.51 K	54.94
382.87 K	57.53
384.16 K	59.98
385.48 K	62.51
386.71 K	65.04
387.9 K	67.54
389.05 K	69.99
390.19 K	72.56
391.28 K	75.03
392.32 K	77.49
393.36 K	80.02
394.38 K	82.52
395.33 K	85.07
396.32 K	87.48
397.26 K	90.03
398.15 K	92.46
399.11 K	95.07
399.93 K	97.49
400.78 K	100.01
401.24 K	101.32
